# Data from patent publication US20230346792A1, “COMPOSITIONS AND METHODS FOR TREATING LUNG INFLAMMATION” (Hoth Therapeutics, Inc., priority 2020, published 2023).
# Legend:
# [1] = target: T1, Neurokinin-1 receptor (Homo sapiens, UniProt P25103); details: lung cancer; cited from earlier work
# T1 construct: host or cells: treated subjects (endogenous receptor)
# [2] = system: NSCLC squamous cell carcinoma; details: one patient with history of COPD and NSCLC squamous cell carcinoma; aprepitant combined with radiotherapy; cited from earlier work
# [3] = system: nociception induced by capsaicin (TRPV1) or AITC (TRPA1); details: capsaicin (via TRPV1) or AITC (via TRPA1), rat peritoneum; cited from earlier work
# [4] = target: T2, NK1R (Rattus norvegicus, UniProt P14600); details: asthma model; cited from earlier work
# T2 construct: host or cells: living animal of an asthma model (endogenous receptor)
# [5] = system: Covid-19 patients; test: Randomized double-blind placebo-controlled clinical study of aprepitant injectable emulsion in Covid-19 positive patients; assay type: in vivo, human; details: aprepitant injectable emulsion (e.g., Cinvanti) daily (QD), 14 days, comparator saline placebo, including severe to critical patients
# Description: One group of patients receives saline placebo daily for a desirable period of time (e.g., 14 days) with normal management and care, and the other group of patients receives aprepitant injectable emulsion (e.g., Cinvanti®) daily (QD) during the same period of time (e.g., 14 days).
# [6] = in vivo; cited from earlier work
# T2 sequence (P14600 whole entry): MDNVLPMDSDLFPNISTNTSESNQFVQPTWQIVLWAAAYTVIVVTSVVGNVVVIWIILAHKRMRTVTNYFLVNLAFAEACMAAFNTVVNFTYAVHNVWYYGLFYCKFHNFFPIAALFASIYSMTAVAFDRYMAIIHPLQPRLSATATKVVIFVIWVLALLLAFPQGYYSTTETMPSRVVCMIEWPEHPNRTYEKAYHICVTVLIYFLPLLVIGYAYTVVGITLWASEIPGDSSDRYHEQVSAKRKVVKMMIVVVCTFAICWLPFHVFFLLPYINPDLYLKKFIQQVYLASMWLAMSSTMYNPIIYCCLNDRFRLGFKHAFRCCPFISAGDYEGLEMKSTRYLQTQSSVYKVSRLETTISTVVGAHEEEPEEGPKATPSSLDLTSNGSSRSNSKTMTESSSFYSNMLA
# T1 sequence (P25103 whole entry): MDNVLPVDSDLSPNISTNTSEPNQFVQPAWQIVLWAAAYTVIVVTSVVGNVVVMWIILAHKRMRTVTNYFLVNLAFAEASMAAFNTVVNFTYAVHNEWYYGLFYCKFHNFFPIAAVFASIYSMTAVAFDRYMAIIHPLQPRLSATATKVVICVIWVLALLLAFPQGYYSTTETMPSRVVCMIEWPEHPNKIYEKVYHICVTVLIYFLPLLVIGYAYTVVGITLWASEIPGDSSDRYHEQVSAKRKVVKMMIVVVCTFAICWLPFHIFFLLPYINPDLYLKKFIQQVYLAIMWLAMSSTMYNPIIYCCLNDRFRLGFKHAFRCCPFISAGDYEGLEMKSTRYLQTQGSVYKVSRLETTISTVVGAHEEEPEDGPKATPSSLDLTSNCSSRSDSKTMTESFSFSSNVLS
Structure (SMILES),cough frequency [1],treatment outcome of lung cancer patient [2],nociception induced by capsaicin or AITC [3],lung inflammation and inflammatory cytokines [4],effectiveness in treating Covid-19 patients versus placebo [5],adverse effects of chronic treatment [6]
C[C@@H](O[C@H]1OCCN(Cc2nc(=O)[nH][nH]2)[C@H]1c1ccc(F)cc1)c1cc(C(F)(F)F)cc(C(F)(F)F)c1 [aprepitant],reduction in cough frequency,successfully treated,able to reduce nociception,reduced lung inflammation and inflammatory cytokines,more effective in treating Covid-19 patients,–
C#Cc1cccc(Nc2ncnc3cc(OCCOC)c(OCCOC)cc23)c1 [erlotinib],–,–,–,–,–,"induces hypomagnesemia, thereby triggering SP-mediated oxidative/inflammation stress and mild-to-moderate cardiac dysfunction"
C=C(C)[C@]12C[C@@H](C)[C@@]34O[C@](Cc5ccccc5)(O[C@@H]1[C@@H]3C=C(COC(=O)Cc1ccc(O)c(OC)c1)C[C@]1(O)C(=O)C(C)=C[C@@H]41)O2 [resiniferatoxin],–,–,able to reduce nociception,–,–,–
